# Reference: patent US20100227859A1, “TRICYCLIC COMPOUNDS AS MATRIX METALLOPROTEINASE INHIBITORS” (priority 2007, published 2010)
# Target: purified human MMP-12 enzyme (Homo sapiens, UniProt P39900)
# Test: MMP-12 FRET assay
# Type: biochemical
# Conditions: substrate 20 μM, room temperature
# Procedure: Compounds according to the present teachings were tested in an MMP-12 FRET assay as follows. To each well of black polystyrene 96-well plate was added assay buffer (50 mM HEPES (pH 7.4), 100 mM NaCl, 5 mM CaCl2 and 0.005% Brij-35 (Polyoxyethyleneglycol dodecyl ether, Pierce cat#20150), purified human MMP-12 enzyme, and varied concentrations of test compounds (prepared by serial dilution of a stock solution in 100% DMSO). The plates were incubated at room temperature for 30 minutes. The enzymatic reactions were initiated by addition of a substrate, MCA-Pro-Leu-Gly-Leu-Dpa(DNP)-Ala-Arg, containing a fluorescent group (7-methoxycoumarin, MCA) and a 2,4-dinitrophenyl group (DNP), to a final concentration of 20 μM. The final DMSO concentration in the assay was 10%. The reaction was monitored for 30 minutes at room temperature and the initial rate of the cleavage reaction was determined using a fluorescence plate reader (λex: 325 nm, λem: 395 nm). Plots of the inhibitor concentration vs. the initial cleavage rate were fit to the following equation: y=Vmax*(1−(x^n/(K^n+x^n))), whereby x=inhibitor concentration, y=initial rate, Vmax=initial rate in the absence of inhibitor, n=slope factor, and K=IC50 for the inhibition curve.
# purified human MMP-12 enzyme, sequence (P39900 106-470): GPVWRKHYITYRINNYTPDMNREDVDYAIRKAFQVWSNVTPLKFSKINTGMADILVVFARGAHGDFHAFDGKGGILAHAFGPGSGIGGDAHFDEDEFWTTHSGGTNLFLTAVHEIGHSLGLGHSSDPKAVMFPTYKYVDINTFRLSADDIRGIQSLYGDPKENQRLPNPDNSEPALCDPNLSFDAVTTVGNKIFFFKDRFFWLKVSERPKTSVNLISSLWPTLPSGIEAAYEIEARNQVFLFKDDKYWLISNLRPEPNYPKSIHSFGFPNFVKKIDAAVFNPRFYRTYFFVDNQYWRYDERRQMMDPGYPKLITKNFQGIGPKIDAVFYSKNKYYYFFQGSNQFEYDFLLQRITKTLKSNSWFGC
row,SMILES,IC50 [nM]
1,"CC(C)[C@H](NS(=O)(=O)c1ccc2c(c1)oc1ccc(C3=CCNCC3)cc12)C(=O)O [Compound 70, (S)-3-methyl-2-(8-(1,2,3,6-tetrahydropyridin-4-yl)dibenzo[b,d]furan-3-sulfonamido)butanoic acid]",5.4
2,"CC(C)[C@H](NS(=O)(=O)c1ccc2c(c1)oc1ccc(C3CCCC3)cc12)C(=O)O [Compound 71, (S)-2-(8-cyclopentyldibenzo[b,d]furan-3-sulfonamido)-3-methylbutanoic acid]",< 1.5
3,"CC(C)[C@H](NS(=O)(=O)c1ccc2c(c1)oc1ccc(-c3ccc(Cl)s3)cc12)C(=O)O [Compound 74, (S)-2-(8-(5-chlorothiophen-2-yl)dibenzo[b,d]furan-3-sulfonamido)-3-methylbutanoic acid]",< 1.5
4,"CC(C)[C@H](NS(=O)(=O)c1ccc2c(c1)oc1ccc(-c3sc(Cl)cc3Cl)cc12)C(=O)O [Compound 75, (S)-2-(8-(3,5-dichlorothiophen-2-yl)dibenzo[b,d]furan-3-sulfonamido)-3-methylbutanoic acid]",< 1.5
5,"CC(C)NC(=N)c1ccc2oc3cc(S(=O)(=O)N[C@H](C(=O)O)C(C)C)ccc3c2c1 [Compound 76, (S)-2-(8-(N-isopropylcarbamimidoyl)dibenzo[b,d]furan-3-sulfonamido)-3-methylbutanoic acid]",18
6,"CC(C)[C@H](NS(=O)(=O)c1ccc2c(c1)oc1ccc(C3=NCCN3)cc12)C(=O)O [Compound 77, (S)-2-(8-(4,5-dihydro-1H-imidazol-2-yl)dibenzo[b,d]furan-3-sulfonamido)-3-methylbutanoic acid]",23
7,"CC(C)[C@H](NS(=O)(=O)c1ccc2c(c1)oc1cc(-c3ccco3)ccc12)C(=O)O [Compound 78, (S)-2-(7-(furan-2-yl)dibenzo[b,d]furan-3-sulfonamido)-3-methylbutanoic acid]",< 1.5
8,"CC(C)[C@H](NS(=O)(=O)c1ccc2c(c1)oc1cc(-c3ccoc3)ccc12)C(=O)O [Compound 79, (S)-2-(7-(furan-3-yl)dibenzo[b,d]furan-3-sulfonamido)-3-methylbutanoic acid]",< 1.5
9,"CC(C)[C@H](NS(=O)(=O)c1ccc2c(c1)oc1cc(-c3ccc(Cl)o3)ccc12)C(=O)O [Compound 80, (S)-2-(7-(5-chlorofuran-2-yl)dibenzo[b,d]furan-3-sulfonamido)-3-methylbutanoic acid]",< 1.5
10,"CC(C)[C@H](NS(=O)(=O)c1ccc2c(c1)oc1cc(-c3cccs3)ccc12)C(=O)O [Compound 81, (S)-3-methyl-2-(7-(thiophen-2-yl)dibenzo[b,d]furan-3-sulfonamido)butanoic acid]",< 1.5
11,"CC(C)[C@H](NS(=O)(=O)c1ccc2c(c1)oc1ccc(C(=N)NO)cc12)C(=O)O [Compound 82, (S)-2-(8-(N-hydroxycarbamimidoyl)dibenzo[b,d]furan-3-sulfonamido)-3-methylbutanoic acid]",1.8
12,"CC(C)[C@H](NS(=O)(=O)c1ccc2c(c1)oc1ccc(C3=NCCO3)cc12)C(=O)O [Compound 83, (S)-2-(8-(4,5-dihydrooxazol-2-yl)dibenzo[b,d]furan-3-sulfonamido)-3-methylbutanoic acid]",2.8
13,"CC(C)[C@H](NS(=O)(=O)c1ccc2c(c1)oc1cc(-c3ccc(Cl)s3)ccc12)C(=O)O [Compound 84, (S)-2-(7-(5-chlorothiophen-2-yl)dibenzo[b,d]furan-3-sulfonamido)-3-methylbutanoic acid]",< 1.5
14,"CC(C)[C@H](NS(=O)(=O)c1ccc2c(c1)oc1cc(-c3sc(Cl)cc3Cl)ccc12)C(=O)O [Compound 85, (S)-2-(7-(3,5-dichlorothiophen-2-yl)dibenzo[b,d]furan-3-sulfonamido)-3-methylbutanoic acid]",< 1.5
15,"CC(C)[C@H](NS(=O)(=O)c1ccc2c(c1)oc1cc(-c3sc(Cl)c(Cl)c3Cl)ccc12)C(=O)O [Compound 86, (S)-3-methyl-2-(7-(3,4,5-trichlorothiophen-2-yl)dibenzo[b,d]furan-3-sulfonamido)butanoic acid]",< 1.5
16,"CC(C)[C@H](NS(=O)(=O)c1ccc2c(c1)oc1ccc(C(=N)Nc3ccccc3)cc12)C(=O)O [Compound 87, (S)-3-methyl-2-(8-(N-phenylcarbamimidoyl)dibenzo[b,d]furan-3-sulfonamido)butanoic acid]",19
17,"CC(C)[C@H](NS(=O)(=O)c1ccc2c(c1)oc1ccc(C(=N)NCc3ccccc3)cc12)C(=O)O [Compound 88, (S)-2-(8-(N-benzylcarbamimidoyl)dibenzo[b,d]furan-3-sulfonamido)-3-methylbutanoic acid]",47

row,SMILES,IC50 [nM]
1,"Cc1cc(-c2ccc3oc4cc(S(=O)(=O)N[C@H](C(=O)O)C(C)C)ccc4c3c2)c(C)s1 [Compound 89, (S)-2-(8-(2,5-dimethylthiophen-3-yl)dibenzo[b,d]furan-3-sulfonamido)-3-methylbutanoic acid]",2.5
2,"COCC#Cc1ccc2c(c1)sc1cc(S(=O)(=O)N[C@@H](C(=O)O)C(C)C)ccc12 [Compound 90, (R)-2-(7-(3-methoxyprop-1-ynyl)dibenzo[b,d]thiophene-3-sulfonamido)-3-methylbutanoic acid]",15
3,"CC(C)[C@H](NS(=O)(=O)c1ccc2c(c1)oc1ccc(-c3ncon3)cc12)C(=O)O [Compound 93, (S)-2-(8-(1,2,4-oxadiazol-3-yl)dibenzo[b,d]furan-3-sulfonamido)-3-methylbutanoic acid]",68
4,"CC(C)[C@H](NS(=O)(=O)c1ccc2c(c1)oc1ccc(-c3ccoc3Cl)cc12)C(=O)O [Compound 94, (S)-2-(8-(2-chlorofuran-3-yl)dibenzo[b,d]furan-3-sulfonamido)-3-methylbutanoic acid]",< 1.5
5,"CC(C)[C@H](NS(=O)(=O)c1ccc2c(c1)oc1ccc(-c3cc(Cl)oc3Cl)cc12)C(=O)O [Compound 95, (S)-2-(8-(2,5-dichlorofuran-3-yl)dibenzo[b,d]furan-3-sulfonamido)-3-methylbutanoic acid]",< 1.5
6,"CC(C)[C@@H](NS(=O)(=O)c1ccc2oc3cc(-c4ccoc4)ccc3c2c1)C(=O)O [Compound 96, (R)-2-(7-(furan-3-yl)dibenzo[b,d]furan-2-sulfonamido)-3-methylbutanoic acid]",13
7,"CC(C)[C@@H](NS(=O)(=O)c1ccc2oc3cc(-c4ccsc4)ccc3c2c1)C(=O)O [Compound 97, (R)-3-methyl-2-(7-(thiophen-3-yl)dibenzo[b,d]furan-2-sulfonamido)butanoic acid]",< 1.5
8,"CC(C)[C@@H](NS(=O)(=O)c1ccc2oc3cc(-c4ccco4)ccc3c2c1)C(=O)O [Compound 98, (R)-2-(7-(furan-2-yl)dibenzo[b,d]furan-2-sulfonamido)-3-methylbutanoic acid]",< 1.5
9,"Cc1cscc1-c1ccc2c(c1)oc1ccc(S(=O)(=O)N[C@@H](C(=O)O)C(C)C)cc12 [Compound 99, (R)-3-methyl-2-(7-(4-methylthiophen-3-yl)dibenzo[b,d]furan-2-sulfonamido)butanoic acid]",12
10,"CC(C)[C@@H](NS(=O)(=O)c1ccc2oc3cc(-c4cc5ccccc5s4)ccc3c2c1)C(=O)O [Compound 100, (R)-2-(7-(benzo[b]thiophen-2-yl)dibenzo[b,d]furan-2-sulfonamido)-3-methylbutanoic acid]",4.9
11,"CC(C)[C@@H](NS(=O)(=O)c1ccc2oc3cc(-c4ccc(Cl)nc4)ccc3c2c1)C(=O)O [Compound 101, (R)-2-(7-(6-chloropyridin-3-yl)dibenzo[b,d]furan-2-sulfonamido)-3-methylbutanoic acid]",5.1
12,"COc1ccc(-c2ccc3c(c2)oc2ccc(S(=O)(=O)N[C@@H](C(=O)O)C(C)C)cc23)cn1 [Compound 102, (R)-2-(7-(6-methoxypyridin-3-yl)dibenzo[b,d]furan-2-sulfonamido)-3-methylbutanoic acid]",< 1.5
13,"CC(C)[C@@H](NS(=O)(=O)c1ccc2oc3cc(-c4cn[nH]c4)ccc3c2c1)C(=O)O [Compound 103, (R)-2-(7-(1H-pyrazol-4-yl)dibenzo[b,d]furan-2-sulfonamido)-3-methylbutanoic acid]",16
14,"CC(C)[C@@H](NS(=O)(=O)c1ccc2oc3cc(/C=C/C4CCCCC4)ccc3c2c1)C(=O)O [Compound 104, (R,E)-2-(7-(2-cyclohexylvinyl)dibenzo[b,d]furan-2-sulfonamido)-3-methylbutanoic acid]",59
15,"CC(=O)c1ccc(-c2ccc3c(c2)oc2ccc(S(=O)(=O)N[C@@H](C(=O)O)C(C)C)cc23)s1 [Compound 105, (R)-2-(7-(5-acetylthiophen-2-yl)dibenzo[b,d]furan-2-sulfonamido)-3-methylbutanoic acid]",21.8
16,"CCN(CC)C(=N)c1ccc2oc3cc(S(=O)(=O)N[C@H](C(=O)O)C(C)C)ccc3c2c1 [Compound 106, (S)-2-(8-(N,N-diethylcarbamimidoyl)dibenzo[b,d]furan-3-sulfonamido)-3-methylbutanoic acid]",400
17,"CC(C)[C@H](NS(=O)(=O)c1ccc2c(c1)oc1ccc(C3=NCCS3)cc12)C(=O)O [Compound 107, (S)-2-(8-(4,5-dihydrothiazol-2-yl)dibenzo[b,d]furan-3-sulfonamido)-3-methylbutanoic acid]",21
